Laboratory results: ChEMBL document CHEMBL4330132, “5-Keto-3-cyano-2,4-diaminothiophenes as selective maternal embryonic leucine zipper kinase inhibitors” (Bioorg Med Chem Lett, 2019)

Experiments:
[1] = biological target: Myosin light chain kinase family member 4 (Homo sapiens) (UniProt Q86YV6); test: Binding affinity to wild-type human partial length MYLK4 (V79 to S380 residues) expressed in bacterial expression system assessed as residual binding level at 1 uM by Kinomescan method relative to control
Sequence of Myosin light chain kinase family member 4 (Homo sapiens) (Q86YV6 whole entry, the tested form may be a part): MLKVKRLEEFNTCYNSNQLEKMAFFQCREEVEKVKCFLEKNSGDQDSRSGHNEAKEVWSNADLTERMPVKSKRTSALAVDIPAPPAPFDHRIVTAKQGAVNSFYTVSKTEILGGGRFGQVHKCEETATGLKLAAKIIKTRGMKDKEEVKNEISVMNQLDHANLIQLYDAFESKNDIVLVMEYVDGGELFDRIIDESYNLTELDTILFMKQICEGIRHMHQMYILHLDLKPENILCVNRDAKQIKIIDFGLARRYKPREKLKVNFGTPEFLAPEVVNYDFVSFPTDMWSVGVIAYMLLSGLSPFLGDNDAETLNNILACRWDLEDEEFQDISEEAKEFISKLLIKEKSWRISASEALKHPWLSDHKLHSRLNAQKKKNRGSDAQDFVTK

[2] = biological target: Cyclin-dependent kinase 11A (Homo sapiens) (UniProt Q9UQ88); test: Binding affinity to wild-type human partial length CDC2L2 (D391 to K730 residues) expressed in bacterial expression system assessed as residual binding level at 1 uM by Kinomescan method relative to control
[3] = biological target: Dual specificity mitogen-activated protein kinase kinase 4 (Homo sapiens) (UniProt P45985); test: Binding affinity to wild-type human partial length MEK4 (S84 to D399 residues) expressed in mammalian expression system assessed as residual binding level at 1 uM by Kinomescan method relative to control
Sequence of Dual specificity mitogen-activated protein kinase kinase 4 (Homo sapiens) (P45985 whole entry, the tested form may be a part, canonical isoform): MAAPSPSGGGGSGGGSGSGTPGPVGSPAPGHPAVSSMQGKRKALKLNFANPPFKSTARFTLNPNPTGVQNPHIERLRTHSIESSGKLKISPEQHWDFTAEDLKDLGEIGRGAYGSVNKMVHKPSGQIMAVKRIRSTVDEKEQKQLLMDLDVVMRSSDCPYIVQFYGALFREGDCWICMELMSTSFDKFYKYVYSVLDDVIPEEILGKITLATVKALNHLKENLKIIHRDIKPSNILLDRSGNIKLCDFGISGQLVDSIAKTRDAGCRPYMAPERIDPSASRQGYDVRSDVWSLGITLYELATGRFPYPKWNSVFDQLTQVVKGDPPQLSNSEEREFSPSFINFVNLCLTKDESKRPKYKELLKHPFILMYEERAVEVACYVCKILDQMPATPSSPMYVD

[4] = biological target: Phosphatidylinositol 4,5-bisphosphate 3-kinase catalytic subunit alpha isoform (Homo sapiens) (UniProt P42336); test: Binding affinity to wild-type human partial length PIK3CA (R108 to N1068 residues) expressed in mammalian expression system assessed as residual binding level at 1 uM by Kinomescan method relative to control
[5] = biological target: Homeodomain-interacting protein kinase 1 (Homo sapiens) (UniProt Q86Z02); test: Binding affinity to wild-type human partial length HIPK1 (M146 to I555 residues) expressed in mammalian expression system assessed as residual binding level at 1 uM by Kinomescan method relative to control
[6] = biological target: 5'-AMP-activated protein kinase catalytic subunit alpha-1 (Homo sapiens) (UniProt Q13131); test: Binding affinity to wild-type human partial length AMPK alpha1 (M1 to E306 residues) expressed in bacterial expression system assessed as residual binding level at 1 uM by Kinomescan method relative to control
Sequence of 5'-AMP-activated protein kinase catalytic subunit alpha-1 (Homo sapiens) (Q13131 whole entry, looked up, the tested form may be a part): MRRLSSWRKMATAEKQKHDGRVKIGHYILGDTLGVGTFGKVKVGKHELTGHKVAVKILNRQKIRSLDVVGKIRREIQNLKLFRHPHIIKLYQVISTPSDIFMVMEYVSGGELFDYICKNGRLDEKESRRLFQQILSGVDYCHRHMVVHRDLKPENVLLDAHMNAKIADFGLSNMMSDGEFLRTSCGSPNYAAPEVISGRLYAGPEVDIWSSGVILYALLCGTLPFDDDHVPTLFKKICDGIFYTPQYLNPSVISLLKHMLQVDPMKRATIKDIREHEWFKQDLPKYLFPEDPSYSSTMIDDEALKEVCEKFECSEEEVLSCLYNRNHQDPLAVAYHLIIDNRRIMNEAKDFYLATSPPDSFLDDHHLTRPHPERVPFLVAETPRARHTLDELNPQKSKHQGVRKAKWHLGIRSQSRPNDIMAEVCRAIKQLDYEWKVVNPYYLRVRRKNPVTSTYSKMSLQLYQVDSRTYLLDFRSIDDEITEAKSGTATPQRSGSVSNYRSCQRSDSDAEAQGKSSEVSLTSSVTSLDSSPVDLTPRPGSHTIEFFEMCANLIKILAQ

[7] = test system: Epidermal growth factor receptor (Homo sapiens), P00533 [UNDEFINED MUTATION]; test: Binding affinity to human partial length EGFR L747-S752del/P753S mutant expressed in bacterial expression system assessed as residual binding level at 1 uM by Kinomescan method relative to control
[8] = biological target: Cyclin-dependent kinase 14 (Homo sapiens) (UniProt O94921); test: Binding affinity to wild-type human full length PFTK1 (M1 to H451 residues) expressed in bacterial expression system assessed as residual binding level at 1 uM by Kinomescan method relative to control
[9] = biological target: Cyclin-dependent kinase 2 homolog (Plasmodium falciparum (isolate 3D7)) (UniProt P61075); test: Binding affinity to wild-type Plasmodium falciparum full length PK5 (M1 to N288 residues) expressed in mammalian expression system assessed as residual binding level at 1 uM by Kinomescan method relative to control
Sequence of Cyclin-dependent kinase 2 homolog (Plasmodium falciparum (isolate 3D7)) (P61075 whole entry, the tested form may be a part): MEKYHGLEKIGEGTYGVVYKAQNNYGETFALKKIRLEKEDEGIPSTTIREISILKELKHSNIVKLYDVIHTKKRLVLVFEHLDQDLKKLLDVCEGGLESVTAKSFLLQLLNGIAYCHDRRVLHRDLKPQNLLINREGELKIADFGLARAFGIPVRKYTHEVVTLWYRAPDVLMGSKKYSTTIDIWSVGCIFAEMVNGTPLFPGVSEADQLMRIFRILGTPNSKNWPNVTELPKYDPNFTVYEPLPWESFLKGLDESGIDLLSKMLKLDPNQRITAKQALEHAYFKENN

[10] = biological target: Mitogen-activated protein kinase 4 (Homo sapiens) (UniProt P31152); test: Binding affinity to wild-type human partial length ERK4 (M1 to L365 residues) expressed in bacterial expression system assessed as residual binding level at 1 uM by Kinomescan method relative to control
Sequence of Mitogen-activated protein kinase 4 (Homo sapiens) (P31152 whole entry, the tested form may be a part): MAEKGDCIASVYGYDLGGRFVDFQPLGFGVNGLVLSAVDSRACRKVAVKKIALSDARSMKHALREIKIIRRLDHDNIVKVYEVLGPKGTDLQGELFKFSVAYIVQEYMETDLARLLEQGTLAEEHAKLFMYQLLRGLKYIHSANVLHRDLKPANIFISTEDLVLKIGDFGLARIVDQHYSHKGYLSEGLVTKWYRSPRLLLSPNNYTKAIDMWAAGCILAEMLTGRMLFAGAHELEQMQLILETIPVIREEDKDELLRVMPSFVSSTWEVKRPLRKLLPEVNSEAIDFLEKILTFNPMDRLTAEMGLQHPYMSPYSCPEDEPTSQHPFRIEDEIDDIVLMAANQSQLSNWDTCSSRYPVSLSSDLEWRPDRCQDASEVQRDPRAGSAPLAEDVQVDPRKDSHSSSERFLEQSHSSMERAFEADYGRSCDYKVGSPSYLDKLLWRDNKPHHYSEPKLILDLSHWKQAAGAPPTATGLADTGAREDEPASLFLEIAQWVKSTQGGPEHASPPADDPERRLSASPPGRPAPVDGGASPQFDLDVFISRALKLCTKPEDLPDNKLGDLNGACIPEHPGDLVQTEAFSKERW

[11] = biological target: Activin receptor type-2B (Homo sapiens) (UniProt Q13705); test: Binding affinity to wild-type human ACVR2B (H169 to D504 residues) expressed in bacterial expression system assessed as residual binding level at 1 uM by Kinomescan method relative to control
Sequence of Activin receptor type-2B (Homo sapiens) (Q13705 whole entry, the tested form may be a part, canonical isoform): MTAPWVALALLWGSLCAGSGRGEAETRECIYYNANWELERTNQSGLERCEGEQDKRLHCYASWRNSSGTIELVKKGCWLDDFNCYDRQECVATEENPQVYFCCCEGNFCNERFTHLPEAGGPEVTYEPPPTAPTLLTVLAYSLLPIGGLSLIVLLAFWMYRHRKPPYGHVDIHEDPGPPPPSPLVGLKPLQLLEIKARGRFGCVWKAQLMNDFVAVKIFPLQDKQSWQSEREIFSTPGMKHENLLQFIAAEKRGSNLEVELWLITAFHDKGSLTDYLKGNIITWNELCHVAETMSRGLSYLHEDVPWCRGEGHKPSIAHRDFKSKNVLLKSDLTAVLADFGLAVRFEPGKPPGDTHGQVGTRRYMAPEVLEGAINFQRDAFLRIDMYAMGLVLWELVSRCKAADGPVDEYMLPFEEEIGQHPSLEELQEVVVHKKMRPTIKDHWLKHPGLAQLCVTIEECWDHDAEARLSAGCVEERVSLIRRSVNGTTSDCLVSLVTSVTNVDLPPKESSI

[12] = test system: Phosphatidylinositol 4,5-bisphosphate 3-kinase catalytic subunit alpha isoform (Homo sapiens), P42336 [E545K]; test: Binding affinity to human partial length PIK3CA E545K mutant (R108 to N1068 residues) expressed in mammalian expression system assessed as residual binding level at 1 uM by Kinomescan method relative to control
[13] = biological target: Myosin-IIIb (Homo sapiens) (UniProt Q8WXR4); test: Binding affinity to wild-type human partial length MYO3B (M1 to D357 residues) expressed in bacterial expression system assessed as residual binding level at 1 uM by Kinomescan method relative to control
[14] = biological target: Mitogen-activated protein kinase kinase kinase 6 (Homo sapiens) (UniProt O95382); test: Binding affinity to wild-type human partial length ASK2 (M278 to R972 residues) expressed in mammalian expression system assessed as residual binding level at 1 uM by Kinomescan method relative to control
[15] = test system: Mast/stem cell growth factor receptor Kit (Homo sapiens), P10721 [A829P]; test: Binding affinity to human partial length KIT A829P mutant (I571 to D952 residues) expressed in mammalian expression system assessed as residual binding level at 1 uM by Kinomescan method relative to control
[16] = biological target: Proto-oncogene tyrosine-protein kinase Src (Homo sapiens) (UniProt P12931); test: Binding affinity to wild-type human partial length SRC (L240 to L536 residues) expressed in bacterial expression system assessed as residual binding level at 1 uM by Kinomescan method relative to control
Sequence of Proto-oncogene tyrosine-protein kinase Src (Homo sapiens) (P12931 2-536 limits assumed): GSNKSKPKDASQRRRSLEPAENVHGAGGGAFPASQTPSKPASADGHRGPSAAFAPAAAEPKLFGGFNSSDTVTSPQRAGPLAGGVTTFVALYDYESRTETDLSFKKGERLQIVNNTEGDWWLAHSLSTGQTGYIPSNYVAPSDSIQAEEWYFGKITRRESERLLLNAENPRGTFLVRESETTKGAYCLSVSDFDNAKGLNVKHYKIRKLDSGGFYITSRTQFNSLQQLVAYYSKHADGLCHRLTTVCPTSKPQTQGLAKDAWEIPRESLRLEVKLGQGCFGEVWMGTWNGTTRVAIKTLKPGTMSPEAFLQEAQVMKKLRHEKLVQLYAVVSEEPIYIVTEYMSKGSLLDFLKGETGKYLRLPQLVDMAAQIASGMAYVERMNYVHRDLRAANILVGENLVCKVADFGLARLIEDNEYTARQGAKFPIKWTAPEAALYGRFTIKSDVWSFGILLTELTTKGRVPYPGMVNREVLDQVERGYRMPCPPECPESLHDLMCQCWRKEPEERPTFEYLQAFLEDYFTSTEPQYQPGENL

[17] = biological target: Ephrin type-A receptor 5 (Homo sapiens) (UniProt P54756); test: Binding affinity to wild-type human partial length EPHA5 (T627 to V930 residues) expressed in bacterial expression system assessed as residual binding level at 1 uM by Kinomescan method relative to control
Sequence of Ephrin type-A receptor 5 (Homo sapiens) (P54756 whole entry, the tested form may be a part): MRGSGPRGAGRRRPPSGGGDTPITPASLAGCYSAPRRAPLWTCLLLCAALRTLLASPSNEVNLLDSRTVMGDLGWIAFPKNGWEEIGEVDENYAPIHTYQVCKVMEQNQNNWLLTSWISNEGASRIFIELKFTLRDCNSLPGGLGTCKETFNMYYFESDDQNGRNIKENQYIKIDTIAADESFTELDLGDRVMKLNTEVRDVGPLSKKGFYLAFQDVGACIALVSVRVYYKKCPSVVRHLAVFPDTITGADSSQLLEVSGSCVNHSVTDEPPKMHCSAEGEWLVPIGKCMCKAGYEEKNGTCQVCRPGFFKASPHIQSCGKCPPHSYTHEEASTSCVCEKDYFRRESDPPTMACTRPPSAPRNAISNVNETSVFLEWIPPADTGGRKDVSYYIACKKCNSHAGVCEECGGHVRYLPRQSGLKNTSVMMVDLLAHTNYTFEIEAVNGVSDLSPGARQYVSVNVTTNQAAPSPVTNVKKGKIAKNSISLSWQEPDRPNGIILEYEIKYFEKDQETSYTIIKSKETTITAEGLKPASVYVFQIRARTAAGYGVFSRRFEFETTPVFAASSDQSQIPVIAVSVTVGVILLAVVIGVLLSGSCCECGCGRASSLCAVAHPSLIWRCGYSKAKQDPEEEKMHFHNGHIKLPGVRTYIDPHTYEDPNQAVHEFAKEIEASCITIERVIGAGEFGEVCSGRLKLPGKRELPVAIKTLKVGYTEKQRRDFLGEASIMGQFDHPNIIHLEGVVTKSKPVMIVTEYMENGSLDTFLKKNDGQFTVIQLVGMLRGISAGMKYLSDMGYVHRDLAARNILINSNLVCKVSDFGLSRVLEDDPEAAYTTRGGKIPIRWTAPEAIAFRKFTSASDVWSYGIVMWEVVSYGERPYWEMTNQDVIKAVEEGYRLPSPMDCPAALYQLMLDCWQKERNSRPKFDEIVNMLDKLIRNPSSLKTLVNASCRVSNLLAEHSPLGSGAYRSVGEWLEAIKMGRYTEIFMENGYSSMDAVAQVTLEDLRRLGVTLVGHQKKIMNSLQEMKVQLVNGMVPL

[18] = biological target: Tyrosine-protein kinase ABL1 (Homo sapiens) (UniProt P00519); test: Binding affinity to wild-type human non-phosphorylated ABL1 (S229 to K512 residues) expressed in mammalian expression system assessed as residual binding level at 1 uM by Kinomescan method relative to control
[19] = biological target: Receptor-interacting serine/threonine-protein kinase 1 (Homo sapiens) (UniProt Q13546); test: Binding affinity to wild-type human partial length RIPK1 (M1 to K305 residues) expressed in bacterial expression system assessed as residual binding level at 1 uM by Kinomescan method relative to control
Sequence of Receptor-interacting serine/threonine-protein kinase 1 (Homo sapiens) (Q13546 whole entry, the tested form may be a part): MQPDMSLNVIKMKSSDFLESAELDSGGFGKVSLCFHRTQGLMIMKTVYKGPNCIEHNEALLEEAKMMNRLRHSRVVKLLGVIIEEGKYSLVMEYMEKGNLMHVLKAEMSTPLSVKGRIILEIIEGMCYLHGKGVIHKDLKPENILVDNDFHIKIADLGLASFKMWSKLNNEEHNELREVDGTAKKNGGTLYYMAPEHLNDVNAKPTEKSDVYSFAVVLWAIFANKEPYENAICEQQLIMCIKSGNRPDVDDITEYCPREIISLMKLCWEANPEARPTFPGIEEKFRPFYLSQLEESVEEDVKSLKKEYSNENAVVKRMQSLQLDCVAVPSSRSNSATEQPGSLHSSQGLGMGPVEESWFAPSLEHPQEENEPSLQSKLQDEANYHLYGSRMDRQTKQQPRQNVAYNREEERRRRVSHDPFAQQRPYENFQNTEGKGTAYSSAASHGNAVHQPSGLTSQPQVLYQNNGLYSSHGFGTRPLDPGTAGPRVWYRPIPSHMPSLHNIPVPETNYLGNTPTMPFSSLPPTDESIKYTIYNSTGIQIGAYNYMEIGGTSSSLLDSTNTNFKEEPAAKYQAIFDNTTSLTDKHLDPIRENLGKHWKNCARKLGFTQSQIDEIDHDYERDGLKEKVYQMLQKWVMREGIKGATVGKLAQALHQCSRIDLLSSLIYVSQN

[20] = test system: Tyrosine-protein kinase ABL1 (Homo sapiens), P00519 [Q252H]; test: Binding affinity to human non-phosphorylated ABL1 Q252H mutant (S229 to K512 residues) expressed in mammalian expression system assessed as residual binding level at 1 uM by Kinomescan method relative to control
[21] = biological target: BDNF/NT-3 growth factors receptor (Homo sapiens) (UniProt Q16620); test: Binding affinity to wild-type human partial length TRKB (Q547 to G838 residues) expressed in mammalian expression system assessed as residual binding level at 1 uM by Kinomescan method relative to control
[22] = biological target: Serine/threonine-protein kinase Nek9 (Homo sapiens) (UniProt Q8TD19); test: Binding affinity to wild-type human partial length NEK9 (P32 to R328 residues) expressed in bacterial expression system assessed as residual binding level at 1 uM by Kinomescan method relative to control
[23] = biological target: Tyrosine-protein kinase receptor TYRO3 (Homo sapiens) (UniProt Q06418); test: Binding affinity to wild-type human partial length TYRO3 (S497 to T814 residues) expressed in bacterial expression system assessed as residual binding level at 1 uM by Kinomescan method relative to control
[24] = test system: Phosphatidylinositol 4,5-bisphosphate 3-kinase catalytic subunit alpha isoform (Homo sapiens), P42336 [E545A]; test: Binding affinity to human partial length PIK3CA E545A mutant (R108 to N1068 residues) expressed in mammalian expression system assessed as residual binding level at 1 uM by Kinomescan method relative to control

SMILES: CC(C)Nc1sc(C(=O)c2ccc(Cl)s2)c(N)c1C#N
- Activity [1]: 96%
- Activity [2]: 100%
- Activity [3]: 82%
- Activity [4]: 100%
- Activity [5]: 100%
- Activity [6]: 70%
- Activity [7]: 82%
- Activity [8]: 93%
- Activity [9]: 94%
- Activity [10]: 89%
- Activity [11]: 92%
- Activity [12]: 80%
- Activity [13]: 98%
- Activity [14]: 100%
- Activity [15]: 66%
- Activity [16]: 83%
- Activity [17]: 100%
- Activity [18]: 100%
- Activity [19]: 100%
- Activity [20]: 100%
- Activity [21]: 70%
- Activity [22]: 85%
- Activity [23]: 92%
- Activity [24]: 100%
